One assay addresses T1, human V1a receptor (Homo sapiens, UniProt P37288).
T1 construct: expressed in transfected cells; host or cells: CHO K1 (Chinese hamster ovary), also stably transfected with a modified aequorin
In words: Cellular in vitro assay for vasopressin receptor activity (V1a, aequorin luminescence). In kind it is cell-based. The following applies: for IC50: CHO cell line with human V1a receptor, [Arg8]-vasopressin at EC50, values are for the prodrug as such, read-out: IC50 hV1a; for ratio IC50 hV2/hV1a: selectivity ratio hV2/hV1a. As to the method: (§1) B-1. Cellular In Vitro Assay for Determining Vasopressin Receptor Activity
(§2) The identification of agonists and antagonists of the V1a and V2 vasopressin receptors from humans, rats and dogs as well as the quantification of the activity of the compounds of the invention is carried out using recombinant cell lines. These cell lines originally derive from a hamster's ovary epithelial cell (Chinese Hamster Ovary, CHO K1, ATCC: American Type Culture Collection, Manassas, Va. 20108, USA). The test cell lines constitutively express the human, rat or dog V1a or V2 receptors. In case of the Gaq-coupled V1a receptors, cells are also stably transfected with a modified form of the calcium-sensitive photoproteins aequorin (human and rat V1a) or obelin (dog V1a), which, after reconstitution with the cofactor coelenterazine, emit light when there are increases in free calcium concentrations [Rizzuto R, Simpson A W, Brini M, Pozzan T, Nature 358, 325-327 (1992); Illarionov B A, Bondar V S, Illarionova V A, Vysotski E S, Gene 153 (2), 273-274 (1995)]. The resulting vasopressin receptor cells react to stimulation of the recombinantly expressed Via receptors by intracellular release of calcium ions, which can be quantified by the resulting photoprotein luminescence. The Gs-coupled V2 receptors are stably transfected into cell lines expressing the gene for firefly luciferase under control of a CRE-responsible promoter. Activation of V2 receptors induces the activation of the CRE-responsive promoter via cAMP increase, thereby inducing the expression of firefly luciferase. The light emitted by photoproteins of V1a cell lines as well as the light emitted by firefly luciferase of V2 cell lines corresponds to the activation or inhibition of the respective vasopressin receptor. The bioluminescence of the cell lines is detected using a suitable luminometer [Milligan G, Marshall F, Rees S, Trends in Pharmacological Sciences 17, 235-237 (1996)].
Vasopressin V1a Receptor Cell Lines:
On the day before the assay, the cells are plated out in culture medium (DMEM/F12, 2% FCS, 2 mM glutamine, 10 mM HEPES, 5 μg/ml coelenterazine) in 384-well microtiter plates and kept in a cell incubator (96% humidity, 5% v/v CO2, 37C). On the day of the assay, test compounds in various concentrations are placed for 10 minutes in the wells of the microtiter plate before the agonist [Arg^8]-vasopressin at EC50 concentration is added. The resulting light signal is measured immediately in a luminometer.
(§3) Table 1A below lists individual IC50 values for the compounds of the invention (including racemic mixtures as well as separated enantiomers) that were obtained from cell lines transfected with the human V1a or V2 receptor. This means these IC50 values are the values for the prodrug and not for the underlying respective drug as the prodrug is mainly stable under the assay conditions.

Another assay deals with T2, human V2 receptor (Homo sapiens, UniProt P30518).
T2 construct: expressed in transfected cells; host or cells: CHO K1 cells expressing firefly luciferase under a CRE-responsive promoter
T2 sequence (P30518 whole entry): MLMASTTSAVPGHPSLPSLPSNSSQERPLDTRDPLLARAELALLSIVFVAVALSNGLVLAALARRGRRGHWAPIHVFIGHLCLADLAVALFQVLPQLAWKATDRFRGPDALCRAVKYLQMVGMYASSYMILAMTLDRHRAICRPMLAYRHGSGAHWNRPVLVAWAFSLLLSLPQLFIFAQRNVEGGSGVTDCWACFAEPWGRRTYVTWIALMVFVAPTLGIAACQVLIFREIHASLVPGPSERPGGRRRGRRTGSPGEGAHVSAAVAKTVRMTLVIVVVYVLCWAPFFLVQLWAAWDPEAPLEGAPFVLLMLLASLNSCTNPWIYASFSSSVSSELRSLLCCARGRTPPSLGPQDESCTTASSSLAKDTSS
Put plainly: Cellular in vitro assay for vasopressin receptor activity (V2, CRE-luciferase). The following applies: CHO cell line with human V2 receptor, [Arg8]-vasopressin at EC50; values are for the prodrug as such; read-out: IC50 hV2. Type of assay: cell-based. As to the method:
as §1, §2
Vasopressin V2 Receptor Cell Lines:
On the day before the assay, the cells are plated out in culture medium (DMEM/F12, 2% FCS, 2 mM glutamine, 10 mM HEPES) in 384-well microtiter plates and kept in a cell incubator (96% humidity, 5% v/v CO2, 37C). On the day of the assay, test compounds in various concentrations and the agonist [Arg^8]-vasopressin at EC50 concentration are added together to the wells, and plates are incubated for 3 hours in a cell incubator. Upon addition of the cell lysis reagent Triton™ and the substrate luciferin, luminescence of firefly luciferase is measured in a luminometer.
as §3

Usually IC50 stands for the concentration that inhibits the measured activity by half.

T1 sequence (P37288 whole entry): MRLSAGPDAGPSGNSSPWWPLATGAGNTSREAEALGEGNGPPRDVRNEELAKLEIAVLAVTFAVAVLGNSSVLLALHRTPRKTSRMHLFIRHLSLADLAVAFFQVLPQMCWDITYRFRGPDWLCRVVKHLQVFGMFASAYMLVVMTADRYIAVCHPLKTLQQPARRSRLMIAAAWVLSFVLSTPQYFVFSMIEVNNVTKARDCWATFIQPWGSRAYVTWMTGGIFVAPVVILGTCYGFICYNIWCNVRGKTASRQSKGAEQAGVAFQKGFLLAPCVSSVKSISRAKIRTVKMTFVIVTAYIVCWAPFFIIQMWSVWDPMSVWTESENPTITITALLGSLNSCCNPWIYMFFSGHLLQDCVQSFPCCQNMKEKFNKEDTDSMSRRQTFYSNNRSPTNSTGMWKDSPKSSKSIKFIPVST

For the compound `NC(=O)c1nc(Cn2nc(-c3ccc(Cl)cc3)n(C[C@H](OP(=O)([O-])[O-])C(F)(F)F)c2=O)nn1-c1ccccc1C(F)(F)F.[Ca+2]` [Example 16, Calcium (2S)-3-[1-({5-carbamoyl-1-[2-(trifluoromethyl)phenyl]-1H-1,2,4-triazol-3-yl}methyl)-3-(4-chlorophenyl)-5-oxo-1,5-dihydro-4H-1,2,4-triazol-4-yl]-1,1,1-trifluoropropan-2-yl Phosphate], at human V1a receptor, the IC50 was determined as 0.029 µM and the “ratio IC50 hV2/hV1a” value was 1.1. Further, the IC50 at human V2 receptor is 0.0305 µM.

Take `NC(=O)c1nc(Cn2nc(-c3ccc(Cl)cc3)n(C[C@H](OP(=O)([O-])O)C(F)(F)F)c2=O)nn1-c1ncccc1Cl.[Na+]` [Example 21, Sodium (2S)-3-[1-{[5-carbamoyl-1-(3-chloropyridin-2-yl)-1H-1,2,4-triazol-3-yl]methyl}-3-(4-chlorophenyl)-5-oxo-1,5-dihydro-4H-1,2,4-triazol-4-yl]-1,1,1-trifluoropropan-2-yl Hydrogen Phosphate]: the IC50 was 0.021 µM at human V1a receptor and 0.038 µM at human V2 receptor. At human V1a receptor (Phosphate), the “ratio IC50 hV2/hV1a” value was 1.8.

As to `NC(=O)c1nc(Cn2nc(-c3ccc(Cl)cc3)n(C[C@H](OP(=O)([O-])O)C(F)(F)F)c2=O)nn1-c1ccccc1C(F)(F)F.[Na+]` [Example 14, Sodium (2S)-3-[1-({5-carbamoyl-1-[2-(trifluoromethyl)phenyl]-1H-1,2,4-triazol-3-yl}methyl)-3-(4-chlorophenyl)-5-oxo-1,5-dihydro-4H-1,2,4-triazol-4-yl]-1,1,1-trifluoropropan-2-yl Hydrogen Phosphate], the IC50 on human V1a receptor worked out at 0.019 µM; on human V2 receptor, 0.0185 µM. Moreover, the “ratio IC50 hV2/hV1a” value at human V1a receptor (Phosphate) is given as 1.0.

Regarding `NC(=O)c1nc(Cn2nc(-c3ccc(Cl)cc3)n(C[C@H](OP(=O)([O-])O)C(F)(F)F)c2=O)nn1-c1ccccc1C(F)(F)F.[K+]` [Example 12, Potassium (2S)-3-[1-({5-carbamoyl-1-[2-(trifluoromethyl)phenyl]-1H-1,2,4-triazol-3-yl}methyl)-3-(4-chlorophenyl)-5-oxo-1,5-dihydro-4H-1,2,4-triazol-4-yl]-1,1,1-trifluoropropan-2-yl Hydrogen Phosphate], the half-inhibitory concentration (IC50) is 0.0165 µM on human V1a receptor and 0.024 µM at human V2 receptor. Also, the “ratio IC50 hV2/hV1a” value at human V1a receptor (Phosphate) amounted to 1.5.

As for `NC(=O)c1nc(Cn2nc(-c3ccc(Cl)cc3)n(C[C@H](OP(=O)([O-])O)C(F)(F)F)c2=O)nn1-c1ncccc1C(F)(F)F.[K+]` [Example 2, Potassium (2S)-3-[1-({5-carbamoyl-1-[3-(trifluoromethyl)pyridin-2-yl]-1H-1,2,4-triazol-3-yl}-methyl)-3-(4-chlorophenyl)-5-oxo-1,5-dihydro-4H-1,2,4-triazol-4-yl]-1,1,1-trifluoropropan-2-yl Hydrogen Phosphate], the IC50 amounted to 0.0395 µM on human V1a receptor and 0.62 µM on human V2 receptor. Moreover, on human V1a receptor (Phosphate), the “ratio IC50 hV2/hV1a” value turned out to be 15.7.

For the compound `NC(=O)c1nc(Cn2nc(-c3ccc(Cl)cc3)n(C[C@H](OP(=O)([O-])[O-])C(F)(F)F)c2=O)nn1-c1ncccc1Cl.[Ca+2]` [Example 23, Calcium (2S)-3-[1-{[5-carbamoyl-1-(3-chloropyridin-2-yl)-1H-1,2,4-triazol-3-yl]methyl}-3-(4-chlorophenyl)-5-oxo-1,5-dihydro-4H-1,2,4-triazol-4-yl]-1,1,1-trifluoropropan-2-yl Phosphate], on human V1a receptor, the IC50 amounted to 0.027 µM and the “ratio IC50 hV2/hV1a” value is recorded as 2.7. Further, the IC50 on human V2 receptor turned out to be 0.0735 µM.

`NC(=O)c1nc(Cn2nc(-c3ccc(Cl)cc3)n(C[C@H](OP(=O)([O-])O)C(F)(F)F)c2=O)nn1-c1ncccc1C(F)(F)F.[Na+]` [Example 5, Sodium (2S)-3-[1-({5-carbamoyl-1-[3-(trifluoromethyl)pyridin-2-yl]-1H-1,2,4-triazol-3-yl}-methyl)-3-(4-chlorophenyl)-5-oxo-1,5-dihydro-4H-1,2,4-triazol-4-yl]-1,1,1-trifluoropropan-2-yl Hydrogen Phosphate]: the IC50 came to 0.00505 µM at human V1a receptor and 0.085 µM on human V2 receptor. Also, at human V1a receptor (Phosphate), the “ratio IC50 hV2/hV1a” value is reported as 16.8.

For `NC(=O)c1nc(Cn2nc(-c3ccc(Cl)cc3)n(C[C@H](OP(=O)([O-])O)C(F)(F)F)c2=O)nn1-c1ncccc1C(F)(F)F.[K+]` [Example 3, Potassium (2S)-3-[1-({5-carbamoyl-1-[3-(trifluoromethyl)pyridin-2-yl]-1H-1,2,4-triazol-3-yl}-methyl)-3-(4-chlorophenyl)-5-oxo-1,5-dihydro-4H-1,2,4-triazol-4-yl]-1,1,1-trifluoropropan-2-yl Hydrogen Phosphate], the values for the IC50 on human V1a receptor and on human V2 receptor were 0.00615 µM and 0.123 µM, respectively. Moreover, at human V1a receptor (Phosphate), the “ratio IC50 hV2/hV1a” value is given as 20.0.

Turning to `NC(=O)c1nc(Cn2nc(-c3ccc(Cl)cc3)n(C[C@H](OP(=O)([O-])O)C(F)(F)F)c2=O)nn1-c1ncccc1Cl.[K+]` [Example 18, Potassium (2S)-3-[1-{[5-carbamoyl-1-(3-chloropyridin-2-yl)-1H-1,2,4-triazol-3-yl]methyl}-3-(4-chlorophenyl)-5-oxo-1,5-dihydro-4H-1,2,4-triazol-4-yl]-1,1,1-trifluoropropan-2-yl Hydrogen Phosphate], the IC50 on human V1a receptor is 0.0335 µM; at human V2 receptor it was 0.084 µM. Moreover, the “ratio IC50 hV2/hV1a” value on human V1a receptor (Phosphate) worked out at 2.5.

`NC(=O)c1nc(Cn2nc(-c3ccc(Cl)cc3)n(C[C@H](OP(=O)([O-])[O-])C(F)(F)F)c2=O)nn1-c1ccccc1C(F)(F)F.[Mg+2]` [Example 15, Magnesium (2S)-3-[1-({5-carbamoyl-1-[2-(trifluoromethyl)phenyl]-1H-1,2,4-triazol-3-yl}methyl)-3-(4-chlorophenyl)-5-oxo-1,5-dihydro-4H-1,2,4-triazol-4-yl]-1,1,1-trifluoropropan-2-yl Phosphate]: the values for the IC50 on human V1a receptor and on human V2 receptor were 0.0195 µM and 0.021 µM, respectively. Besides, the “ratio IC50 hV2/hV1a” value at human V1a receptor was determined as 1.1.

In the case of `NC(=O)c1nc(Cn2nc(-c3ccc(Cl)cc3)n(C[C@H](OP(=O)([O-])[O-])C(F)(F)F)c2=O)nn1-c1ncccc1C(F)(F)F.[Ca+2]` [Example 8, Calcium (2S)-3-[1-({5-carbamoyl-1-[3-(trifluoromethyl)pyridin-2-yl]-1H-1,2,4-triazol-3-yl}-methyl)-3-(4-chlorophenyl)-5-oxo-1,5-dihydro-4H-1,2,4-triazol-4-yl]-1,1,1-trifluoropropan-2-yl Phosphate], the figures for the IC50 on human V1a receptor and at human V2 receptor were 0.017 µM and 0.145 µM, respectively. The “ratio IC50 hV2/hV1a” value at human V1a receptor is 8.5.

Take `NC(=O)c1nc(Cn2nc(-c3ccc(Cl)cc3)n(C[C@H](OP(=O)([O-])O)C(F)(F)F)c2=O)nn1-c1ncccc1Cl.[K+]` [Example 19, Potassium (2S)-3-[1-{[5-carbamoyl-1-(3-chloropyridin-2-yl)-1H-1,2,4-triazol-3-yl]methyl}-3-(4-chlorophenyl)-5-oxo-1,5-dihydro-4H-1,2,4-triazol-4-yl]-1,1,1-trifluoropropan-2-yl Hydrogen Phosphate]: the figures for the IC50 at human V1a receptor and at human V2 receptor were 0.024 µM and 0.051 µM, respectively. Moreover, at human V1a receptor (Phosphate), the “ratio IC50 hV2/hV1a” value was determined as 2.1.

As for `NC(=O)c1nc(Cn2nc(-c3ccc(Cl)cc3)n(C[C@H](OP(=O)([O-])O)C(F)(F)F)c2=O)nn1-c1ccccc1C(F)(F)F.[Na+]` [Example 13, Sodium (2S)-3-[1-({5-carbamoyl-1-[2-(trifluoromethyl)phenyl]-1H-1,2,4-triazol-3-yl}methyl)-3-(4-chlorophenyl)-5-oxo-1,5-dihydro-4H-1,2,4-triazol-4-yl]-1,1,1-trifluoropropan-2-yl Hydrogen Phosphate], the IC50 worked out at 0.019 µM at human V1a receptor and 0.0265 µM at human V2 receptor. In addition, at human V1a receptor (Phosphate), the “ratio IC50 hV2/hV1a” value is 1.4.

Values taken from patent publication US11298367B2, “Prodrugs of substituted triazole derivatives and uses thereof” (Bayer Aktiengesellschaft, priority 2017, dated 2022).
